Source: patent publication US20230321063A1, “COMPOSITIONS AND METHODS TO REDUCE NEUROINFLAMMATION” (Seattle Children's Hospital d/b/a Seattle Children's …, priority 2020, published 2023)
Entries after “also recorded” stand apart in the source; their conditions may differ.

Legend:
[1] = system: Ndufs4(KO) mice; assay: Body weight, growth and cachexia onset; type: in vivo, mouse
Experimental: (§1) Ndufs4(+/−) mice were bred to produce Ndufs4(KO) (Ndufs4(−/−)) offspring. Mice were weaned at 20-21 days of age. Ndufs4(KO) animals were housed with a minimum of one control littermate for warmth and stimulation. Mice were weighed, and health assessed, a minimum of 3 times per week, every other day (daily for IP injected mice, see herein). Where longitudinal blood point-of-care data was collected, this was performed during these health checks. Wetted chow in a dish on the bottom of each cage, and in-cage water bottles, were provided to all cages housing Ndufs4(KO) mice following the onset of disease so that the ability to find or reach food or water was not a limiting factor for survival.
Cachexia in FIG. 4H and FIG. 6E is the day of life when weight peaks prior to the progressive weight loss which occurs in untreated Ndufs4(KO) animals.

[2] = system: Ndufs4(KO) mouse model of LS; assay: Survival studies and overall disease course in Ndufs4(KO) mice; type: in vivo; conditions: for impact on disease (overall) / disease or survival: Ndufs4(KO) mice; for survival: Ndufs4(KO) mice vs untreated
Experimental: as §1
Doses of each drug was based on published data for use in animals. […] Blood and tissue concentrations reached biologically relevant levels for each of the tested inhibitors.
Pharmacologic interventions and chow formulation. Standard mouse chow was ground to a power and mixed with drugs at the doses desired (see FIGS. 4A-4L). 300 mL of 1% agar melted in sterile water was added per kilogram of powdered chow and the mixture was pelleted and baked at 37° C. for 3-5 hours to dry. Pellets were then stored at 4° C. for short term (up to 90 days) or −20° C. for long-term (up to 6 months) storage. It was previously shown that this processing had no impact on animal health or survival (Johnson et al. Front Genet. 2015; 6:247). […]
To determine whether the benefits of mTOR inhibition in Ndufs4(KO) model result from disruption of PI3K mediated signaling, animals were treated from weaning (post-natal day 21, P21) with potent, orally available, isoform specific inhibitors of the catalytic subunits of PI3K: BYL719, GSK2636771, CAL-101, and IPI-549, inhibitors of p110α, p110β, p110δ, and p110γ, respectively.

[3] = system: Ndufs4(KO) mice; assay: Longitudinal assessment of neurological disease symptoms (clasping, ataxia, circling); type: in vivo, mouse; conditions: Ndufs4(KO) mice vs untreated
Experimental: Longitudinal assessments of neurological disease symptoms. Clasping, ataxia, and circling were assessed by visual scoring, as previously described. As disease progresses in the Ndufs4(KO) mice animals display intermittent/transient improvement of symptoms. […] For observational assessments, lab-wide quality control discussions occurred frequently to ensure consistency between technicians/researchers. Technicians contributed equally to each treatment group to minimize any potential bias between individuals.

[4] = system: Ndufs4(KO) mice; assay: Point-of-care blood glucose by age; type: in vivo, mouse
Text: (§2) Point-of-care glucose and lactate testing. Blood glucose and lactate measurements were collected using point-of-care meters (Prodigy Autocode® glucose meter, product #51850-3466188, Prodigy® Diabetes Care, LLC, Charlotte, NC; lactate assay meter, product #40828, Nova Biomedical, Waltham, MA) and the tail-prick method, as previously described (Stokes et al. Elife 2021; 10:e65400).

[5] = system: Ndufs4(KO) mice; assay: Rotarod assay; type: in vivo, mouse; conditions: latency to fall up to 10 min, 6 rpm
Experimental: Rotarod and rotarod seizures. Rotarod assays were performed using a Med Associates Inc. (Fairfax, VT) ENV-571M single lane rotarod with a black mat installed in the floor of the lane to reduce visibility of the bottom. Assays were performed by placing animals onto an already rotating rod and timing latency to fall, with a steady rotation speed set to 6 rpm (controlled by attached laptop and Med Associates software). The maximum time of each trial was 10 min, with the trial ending at that time if mice were still on the rotarod. For each assay, three trials were performed, with a minimum of 5 min between each assay. The best of the three trials was reported for the rotarod data. As detailed in the text and figure legends, rotarod was performed each 10 days of age from P30; mice in a given age group were the reported age +/−1 day.

[6] = system: control and Ndufs4(KO) mice; assay: Glucose tolerance test (GTT) and glucose induced lactate test; type: in vivo, mouse; conditions: 2 g/kg glucose IP; pexidartinib 300 mg/kg/d in chow, IPI-549 100 mg/kg/d in chow, rapamycin (ABI-009) 8 mg/kg/d IP
Text: as §2
Glucose tolerance test (GTT) and glucose induced lactate test. Prior to performing the GTT, mice were fasted for 4 hours, from 10 AM-2 PM. The fasting duration was limited to 4 hours given the sensitivity of untreated Ndufs4(KO) animals to hypoglycemia and related sequelae (dysregulation of body temperature, hypoglycemia induced seizure, etc.). For the ABI-009 cohort, mice received their daily ABI-009 treatment at the start of this fasting period. At the end of the 4 hour fast, baseline blood glucose and lactate values were collecting using point-of-care meters and the tail-prick method. Mice were then injected by IP with 2 g/kg dextrose (10 microliters/gram body weight of 200 mg/mL glucose in 1×PBS, 0.2 micron sterile filtered) using an insulin syringe (31-gauge, 6 mm length, 3/10 cc, BD Veo Ultra-Fine needle). Glucose and lactate levels were measured using a minimally invasive tail-prick method at designated timepoints post-injection.

[7] = system: Ndufs4(KO) mice; conditions: rapamycin at doses sufficient to attenuate disease; Johnson et al.; cited from earlier work

SMILES | growth and body size ([1]; compared with mTOR inhibition) | impact on disease (overall) / disease or survival [2] | survival [2] | onset of symptoms: forelimb clasping, ataxia, and circling [3] | hypoglycemia (blood glucose) [4] | cachexia [1] | performance on rotarod assay [5] | median survival ([2]; Ndufs4(KO) mice treated from weaning (P21) via chow, untreated 60) | blood lactate spike in response to a glucose bolus [6] | developmental weight gain and maximum body size [7]
Cc1nc(NC(=O)N2CCC[C@H]2C(N)=O)sc1-c1ccnc(C(C)(C)C(F)(F)F)c1 [BYL719, (2S)-1-N-[4-methyl-5-[2-(1,1,1-trifluoro-2-methylpropan-2-yl)pyridin-4-yl]-1,3-thiazol-2-yl]pyrrolidine-1,2-dicarboxamide] | extremely small body size; also recorded: severely impaired growth and size | only modestly impacting disease | extension of survival | statistically significant delay in symptom onset | – | – | – | – | – | –
C[C@H](NC(=O)c1c(N)nn2cccnc12)c1cc2cccc(C#Cc3cnn(C)c3)c2c(=O)n1-c1ccccc1 [IPI-549, 2-amino-N-[(1S)-1-[8-[2-(1-methylpyrazol-4-yl)ethynyl]-1-oxo-2-phenylisoquinolin-3-yl]ethyl]pyrazolo[1,5-a]pyrimidine-3-carboxamide] | – | attenuated disease | markedly extended survival | significantly delayed the onset | prevented | prevented | improved | 110 days | similarly prevented the lactate sequelae | –
CO[C@H]1C[C@@H]2CC[C@@H](C)[C@@](O)(O2)C(=O)C(=O)N2CCCC[C@H]2C(=O)O[C@H]([C@H](C)C[C@@H]2CC[C@@H](O)[C@H](OC)C2)CC(=O)[C@H](C)/C=C(\C)[C@@H](O)[C@@H](OC)C(=O)[C@H](C)C[C@H](C)/C=C/C=C/C=C/1C [rapamycin] | – | – | – | – | – | – | – | – | – | significant reductions
